# Experimental data as given in patent US20240002441A1, “PEPTIDES AND USES THEREOF IN MODULATION OF AMYLOID-BETA PROTEIN DEGRADING PROTEASES” (priority 2020, published 2024).
# Columns and labels:
# [1] = molecular target: T1, NEP (Homo sapiens, UniProt P08473); assay: Cleavage of synthetic Aβ40 by NEP, LCMS (Example 7); format: biochemical; conditions: peptide 9 μM
# T1 construct: purchased R & D systems 1182-ZNC-010
# Description: Synthetic Aβ40 (0.10 μg/μL) was added to a reaction mixture containing NEP (0.05 ng/μL) pre-incubated with SEQ ID NO:2 or scrambled control (9 μM) for 1 h at 37° C. Synthetic Aβ42 (0.05 μg/μL) was added to a reaction mixture containing NEP (0.15 ng/μL) preincubated with either scrambled control or SEQ ID NO:2 (9 μM) for 1 h at 37° C. Samples containing enzyme alone had only NEP buffer (Table 2). The cleavage reaction was allowed to continue in a thermomixer at 37° C. Aliquots of equal volume were taken over 24 h. Aliquots were immediately acidified with 0.1% trifluoroacetic acid (TFA) to terminate enzyme activity and snap frozen in dry ice. Samples were stored at −80° C. until analysed by LCMS.
# Samples were analysed by LC-MS/MS using a quadrupole TOF mass spectrometer (MicroTOFq, Bruker Daltonics, Bremen, Germany) coupled online with a 1200 series nano-HPLC (Agilent technologies, Santa Clara, CA, USA). Samples were injected onto a zorbax 300SB reversed phase trap column with 95% solvent A (0.1% formic acid) at a flow rate of 10 μL/minute. The peptides were eluted over a 10-min gradient to 70% solvent B (80% acetonitrile, 0.1% formic acid) and separated on a 15-cm, 75-μmID zorbax 300SB nanocolumn. The eluent was nebulised and ionised using the Bruker nano-ESI source with a capillary voltage of 4500 V, dry gas at 180° C., flow rate of 5 L/minute and nebuliser gas pressure at 300 mbar. The MS acquisition was in selected ion monitoring mode after selected ion extraction of the MS spectra. Prior to analysis, the qTOF mass spectrometer was calibrated using a 1:50 dilution tuning mix (Agilent technologies, Santa Clara, CA, USA). Data from MS run were processed in Skyline version 19.1.0.193 (Uni. Of Washington, WA, USA) to perform ion chromatogram extractions and peak integrations.
# [2] = tested on: 5×FAD transgenic mice; assay: 5×FAD transgenic mouse model of Alzheimer's Disease (Example 15); format: in vivo
# Description: All animal experiments were conducted in strict accordance with the Australian Code of Practice for the Care and Use of Animals for Scientific Purposes. Local approval was obtained from The University of Queensland's Animal Ethics Committee. All wild-type (WT) and transgenic mice (5×FAD tg) used were from the same litters to act as appropriate littermate controls. Thirty-four 2.5-3-month-old female and twenty-five 2.5-3-month-old male mice were used in this study. Animals were housed in groups of 3-5 animals per cage and maintained on a 12 hr light-dark cycle. Food and water were provided ad libitum.
# All testing was conducted between 8 AM-6 PM, at approximately the same time each day. Prior to commencing any behavioural testing, mice were habituated to handling and handler smell to minimize handling-related stress. Each mouse was handled daily by the experimenter conducting the behavioural tasks for 30-s to 1-min each day. Handling involved picking up the mouse (by the base of the tail) from the home cage and placing in the palm of a gloved hand. This process was repeated daily, at approximately the same time each day, for a total of 8 days prior to testing. The bedding of the animals' home cage was not changed 2-days prior habituation to handling and for the duration of the behavioural tests. […]
# The Active Place Avoidance (APA) task assessing longer-term spatial learning and memory was conducted on all mice as previously described (Willis E F, Bartlett P F, Vukovic J. Protocol for Short- and Longer-term Spatial Learning and Memory in Mice. Front Behav Neurosci. 2017; 11:197. https://doi:10.3389/fnbeh.2017.00197). The APA arena (Bio-Signal Group, NY, USA) consisted of a 77 cm diameter metal grid floor fenced by a 32 cm high Perspex clear circular boundary. The elevated arena sits directly below a digital video camera (Point Gray, USA) and in the middle of the room with visual cues placed on all 4 of the room walls. The visual cues consisted of black and white symbols printed on A3-sized paper. Visual cues were randomly chosen and kept constant for the 5-days of testing, and a different set of visual cues were used for post-2A treatment testing. Room lighting was set at 62-63% white light and light intensity recordings were taken by placing the luxmeter in the centre of the arena before the start of each session and kept between 60-70 lux.
# The arena was set to rotate clockwise (1 rpm). The shock zone where a brief electric shock (500 ms, 0.5 mA, track-dependent) is delivered through the grid floor, is set at a 270° (pre-2A treatment) or 90° (post-2A treatment) angle and width of 60°. […] Mice were to actively avoid this shock zone while the arena rotates clockwise.
# The position of the mouse in the arena was tracked using an overhead camera linked to Tracker software (Bio-Signal Group). When the centre-point of the mouse entered the shock zone, as tracked by the overhead camera linked to the tracking software, it received an electric shock. During the trials, the researcher sat quietly behind a curtain, out of view of the arena. After the completion of a trial, each mouse was returned to the home cage and the metal grid, clear Perspex boundary and underlying floor were cleaned with 70% ethanol. All scat and urine were removed following the completion of the trial.
# Peptide of SEQ ID NO. 2 was dissolved in dimethyl sulfoxide (DMSO), and subsequently diluted in Dulbecco's phosphate-buffered saline (DPBS; 10% DMSO final). Pre-treatment open field/activity monitor data was used as the pseudorandomisation parameter for assigning animals to treatment groups. At 12-14 weeks, male and female 5×FAD and WT littermates were intranasally administered either 10% DMSO in DPBS as vehicle treatment or SEQ ID NO. 2 in DPBS (1 mg/kg). Treatment commenced immediately after the completion of pre-treatment behavioural testing and was administered every other day for 1 month. Body weight was measured every second day prior to intranasal dosing. […]
# T1 sequence (P08473 whole entry): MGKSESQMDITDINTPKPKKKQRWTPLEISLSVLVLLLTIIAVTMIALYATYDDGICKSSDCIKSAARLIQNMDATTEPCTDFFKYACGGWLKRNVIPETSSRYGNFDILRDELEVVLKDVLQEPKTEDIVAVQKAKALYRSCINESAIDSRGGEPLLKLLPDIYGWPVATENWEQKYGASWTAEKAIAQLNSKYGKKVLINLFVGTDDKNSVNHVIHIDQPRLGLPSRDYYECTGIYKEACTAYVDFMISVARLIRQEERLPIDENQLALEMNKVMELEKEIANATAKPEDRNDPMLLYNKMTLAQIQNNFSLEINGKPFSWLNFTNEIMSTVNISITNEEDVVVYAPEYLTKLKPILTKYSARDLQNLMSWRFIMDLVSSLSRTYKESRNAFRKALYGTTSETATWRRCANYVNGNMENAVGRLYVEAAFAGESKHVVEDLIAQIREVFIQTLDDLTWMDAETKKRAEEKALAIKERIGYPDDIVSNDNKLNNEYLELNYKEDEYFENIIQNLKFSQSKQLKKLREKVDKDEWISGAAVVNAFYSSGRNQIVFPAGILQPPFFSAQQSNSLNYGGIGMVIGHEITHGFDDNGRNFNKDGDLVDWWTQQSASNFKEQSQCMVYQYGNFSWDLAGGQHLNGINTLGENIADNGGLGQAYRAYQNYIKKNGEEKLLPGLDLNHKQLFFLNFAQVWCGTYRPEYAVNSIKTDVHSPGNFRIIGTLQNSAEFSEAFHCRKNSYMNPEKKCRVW
substance,measurement,setting,value
"H-SLFELGKMIL-NH2 [SEQ ID NO:2, H2N-SLFELGKMIL-NH2]",decrease in Aβ1-21 peak area over 4-20 h,[1]; Aβ40 cleavage,7.5×10^7±1.3×10^7 arbitrary units
same,levels of Aβ1-21 (peak area) at 4 h,"[1]; Aβ40 cleavage, 4 h",7.9×10^7±1.3×10^7 arbitrary units
same,levels of Aβ1-21 (peak area) at 24 h,"[1]; Aβ40 cleavage, 24 h",4.1×10^6±4.8×10^5 arbitrary units
same,peak area corresponding to Aβ1-12 after 24 h,"[1]; Aβ40 cleavage, 24 h",1.3×10^8±7.9×10^6 arbitrary units
same,time at which breakdown of Aβ40 was complete,[1]; NEP 0.05 ng/μL,4 h
same,amount of Aβ40 remaining after 4 h (peak area),"[1]; NEP 0.05 ng/μL, Aβ40 0.10 μg/μL, 4 h",1.3×10^6±2.7×10^5 arbitrary units
same,"amount of Aβ40 remaining after 24 h, SEQ ID NO:2 versus scrambled control",[1]; 24 h,no significant difference
same,"active place avoidance behaviour, 5-day post-treatment performance","[2]; Tg mice, peptide versus vehicle",improved avoidance behavior
same,IL-6 protein level in the cortex compared to Tg mice treated with vehicle,"[2]; Tg mice, western blotting",reduction
same,TNF-α protein level in the cortex compared to Tg mice treated with vehicle,"[2]; Tg mice, western blotting",reduction
same,"number of shocks in the APA task at day 5 of testing, post-treatment versus pre-treatment",[2]; WT or Tg mice treated with peptide,significantly more
same,"frequency of entry to the novel arm in y-maze test, as % of entries to all other arms, pre-treatment compared with post-treatment",[2]; between groups,did not show significant difference
same,number of shocks received post-treatment,[2]; between groups,not significantly different
same,time in the centre in the open field/activity test,"[2]; each group of mice, pre- versus post-treatment",not significantly different
